# According to US20260159533A1, “INHIBITORS OF COMPLEMENT FACTORS AND USES THEREOF” (Annexon, Inc., priority 2022, published 2026):
# Counter-ions that a name gives are not always drawn.
# Target: T1, human C1s protein (Homo sapiens, UniProt P09871)
# T1 construct: purchased R&D Systems or Complement Technologies 2060-SE or A104
# T1 sequence (P09871 16-688): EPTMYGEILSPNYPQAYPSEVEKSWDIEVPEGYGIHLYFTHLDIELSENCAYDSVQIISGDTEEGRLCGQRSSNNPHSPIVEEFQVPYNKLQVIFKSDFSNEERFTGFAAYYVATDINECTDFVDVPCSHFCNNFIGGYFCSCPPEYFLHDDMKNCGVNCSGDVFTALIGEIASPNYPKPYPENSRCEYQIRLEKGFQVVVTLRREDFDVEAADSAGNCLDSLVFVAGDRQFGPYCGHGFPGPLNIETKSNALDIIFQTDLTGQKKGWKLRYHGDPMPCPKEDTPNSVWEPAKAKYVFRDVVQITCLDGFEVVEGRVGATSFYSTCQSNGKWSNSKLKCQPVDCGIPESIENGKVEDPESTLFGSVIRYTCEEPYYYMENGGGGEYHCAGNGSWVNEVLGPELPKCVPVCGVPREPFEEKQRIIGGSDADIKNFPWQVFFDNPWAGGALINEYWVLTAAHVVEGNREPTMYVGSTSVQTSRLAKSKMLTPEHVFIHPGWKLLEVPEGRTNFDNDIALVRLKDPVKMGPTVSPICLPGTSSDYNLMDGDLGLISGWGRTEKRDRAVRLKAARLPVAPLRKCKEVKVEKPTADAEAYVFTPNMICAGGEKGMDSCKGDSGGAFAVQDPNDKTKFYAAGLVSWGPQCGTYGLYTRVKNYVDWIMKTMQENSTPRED
# Assay: recombinant C1s enzymatic assay (YLGR-Rh110-dPro substrate hydrolysis, fluorescence)
# Assay type: biochemical
# Details: recombinant human C1s 2.5 nM, substrate YLGR-Rh110-dPro 20 μM, 15 min pre-incubation, 60 min RT; read-out: rec. hC11s pIC50 (converted)
# Procedure: Compound testing in the purified or recombinant C1s enzymatic assay C1s is a serine protease; its enzymatic activity is measured in vitro by the hydrolysis of the synthetic substrate YLGR-Rh110-dPro (Kerr F K, O'Brien G, Quinsey N S, Whisstock J C, Boyd S, de la Banda M G, Kaiserman D, Matthews A Y, Bird P I, Pike R N. Elucidation of the substrate specificity of the Cis protease of the classical complement pathway. J. Biol. Chem. (2005) 280, 39510-39514). The enzyme cleaves the substrate with the release of Rh110 which is highly fluorescent. Cis inhibitors prevent the hydrolysis of the substrate thus resulting in a decrease of the signal.
# The recombinant C1s enzymatic assay is performed using the human C1s protein (R&D Systems, 2060-SE or Complement Technologies, A104). The assay buffer composition is: 50 mM HEPES pH 7.5 (Sigma, H3375), 150 mM NaCl (Sigma, S7653), 0.2% PEG 8000 (VWR, AA43443-22), 0.01% Pluronic F127 (Sigma, P2243). On the day of the experiment 0.1 mg/mL BSA (Sigma, B4287) is added fresh to the buffer. The test item stock solutions are serially diluted 1:3 or 1:4 or 1:5 with DMSO, 11-point curves, in a 384-well compound plate. Nafamostat concentration curve is always included in the assay plate as a reference control.
# The assay plate is prepared by dispensing 0.25 μL from compound plate into a 384-well black assay plate (assay plate, Greiner Fluotrac 200, 781076, VWR 736-0140). The high controls are prepared dispensing in 0.25 μL DMSO in column 23, rows AH or AP and low controls with 0.25 μL of 0.1 μM Nafamostat. Cis solution is prepared as 2× of the 2.5 nM final assay concentration. The YLGR-Rh110-dPro substrate is prepared as 2× of the final assay concentration of 20 μM. 5 μL/well of 2× enzyme solution is dispensed and pre-incubated for 15 min with the compounds. The enzymatic reaction is the started with 5 μL/well of the 2× substrate solution. The plate is incubated for 60 min RT in the dark and fluorescence is measured (ex 485/em 535 nm) using an Envision (PerkinElmer) or an equivalent instrument.
row,Structure (SMILES),IC50 [nM]
1,"Nc1cnnc2cc(-c3cc(B(O)O)ccc3-n3cccn3)ccc12 [Example 1, [3-(4-aminocinnolin-7-yl)-4-(1H-pyrazol-1-yl)phenyl]boronic acid]",3.24
2,"CNC(=O)c1cnn(-c2ccc(B(O)O)cc2-c2ccc3c(N)cnnc3c2)c1 [Example 2, [3-(4-aminocinnolin-7-yl)-4-[4-(methylcarbamoyl)-1H-pyrazol-1-yl]phenyl]boronic acid formic acid salt]",3.89
3,"Nc1cnnc2cc(-c3cc(B(O)O)ccc3-n3ccnc3)ccc12 [Example 3, [3-(4-aminocinnolin-7-yl)-4-(1H-imidazol-1-yl)phenyl]boronic acid]",66.1
4,"COC(=O)c1cn(-c2ccc(B(O)O)cc2-c2ccc3c(N)cnnc3c2)cn1 [Example 4, [3-(4-aminocinnolin-7-yl)-4-[4-(methoxycarbonyl)-1H-imidazol-1-yl]phenyl]boronic acid]",38.9
5,"Nc1cnnc2cc(-c3cc(B(O)O)ccc3-n3cncn3)ccc12 [Example 5, [3-(4-aminocinnolin-7-yl)-4-(1H-1,2,4-triazol-1-yl)phenyl]boronic acid formic acid salt]",1.32
6,"CNC(=O)c1ccn(-c2ccc(B(O)O)cc2-c2ccc3c(N)cnnc3c2)n1 [Example 6, [3-(4-aminocinnolin-7-yl)-4-[3-(methylcarbamoyl)-1H-pyrazol-1-yl]phenyl]boronic acid]",29.5
7,"Nc1cnnc2cc(-c3cc(B(O)O)ccc3-c3cc[nH]n3)ccc12 [Example 7, [3-(4-aminocinnolin-7-yl)-4-(1H-pyrazol-3-yl)phenyl]boronic acid]",2.63
8,"Cc1cc(-n2cccn2)c(-c2ccc3c(N)cnnc3c2)cc1B(O)O [Example 8, [5-(4-aminocinnolin-7-yl)-2-methyl-4-(1H-pyrazol-1-yl)phenyl]boronic acid]",14.8
9,"Nc1cnnc2cc(-c3cc(B(O)O)ccc3-n3cc(C(F)F)cn3)ccc12 [Example 9, [3-(4-aminocinnolin-7-yl)-4-[4-(difluoromethyl)-1H-pyrazol-1-yl]phenyl]boronic acid]",1.74
10,"CC(=O)Nc1cnn(-c2ccc(B(O)O)cc2-c2ccc3c(N)cnnc3c2)c1 [Example 10, [3-(4-aminocinnolin-7-yl)-4-(4-acetamido-1H-pyrazol-1-yl)phenyl]boronic acid formic acid salt]",1.78
11,"Nc1cnnc2cc(-c3cc(B(O)O)ccc3-n3cc(F)cn3)ccc12 [Example 11, [3-(4-aminocinnolin-7-yl)-4-(4-fluoro-1H-pyrazol-1-yl)phenyl]boronic acid formic acid salt]",1.45
12,"Nc1cnnc2cc(-c3cc(B(O)O)ccc3-n3ncnn3)ccc12 [Example 12, [3-(4-aminocinnolin-7-yl)-4-(2H-1,2,3,4-tetrazol-2-yl)phenyl]boronic acid]",0.589
13,"Nc1cnnc2cc(-c3cc(B(O)O)cnc3-n3cccn3)ccc12 [Example 13, [5-(4-aminocinnolin-7-yl)-6-(1H-pyrazol-1-yl)pyridin-3-yl]boronic acid]",4.47
14,"Nc1cnnc2cc(-c3cc(B(O)O)ccc3-n3ccc(C(F)F)n3)ccc12 [Example 14, [3-(4-aminocinnolin-7-yl)-4-[3-(difluoromethyl)-1H-pyrazol-1-yl]phenyl]boronic acid formic acid salt]",14.8
15,"Nc1cnnc2cc(-c3cc(B(O)O)ccc3-n3nccn3)ccc12 [Example 15, [3-(4-aminocinnolin-7-yl)-4-(2H-1,2,3-triazol-2-yl)phenyl]boronic acid formic acid salt]",0.933
16,"Nc1cnnc2cc(-c3cc(B(O)O)ccc3-n3ccnn3)ccc12 [Example 16, [3-(4-aminocinnolin-7-yl)-4-(1H-1,2,3-triazol-1-yl)phenyl]boronic acid]",3.98
17,"N#Cc1ccn(-c2ccc(B(O)O)cc2-c2ccc3c(N)cnnc3c2)n1 [Example 17, [3-(4-aminocinnolin-7-yl)-4-(3-cyano-1H-pyrazol-1-yl)phenyl]boronic acid]",6.31
18,"Cc1nc(-c2ccc(B(O)O)cc2-c2ccc3c(N)cnnc3c2)ns1 [Example 18, [3-(4-aminocinnolin-7-yl)-4-(5-methyl-1,2,4-thiadiazol-3-yl)phenyl]boronic acid]",1.62

# The next lines start with the values.
row,IC50 [nM],Structure (SMILES)
1,1.7,"CC1COc2cc(-n3cccn3)c(-c3ccc4c(N)cnnc4c3)cc2B(O)O1 (single isomer, unassigned; enantiomer 1) [Example 72, 7-(1-hydroxy-3-methyl-7-pyrazol-1-yl-3,4-dihydro-2,5,1-benzodioxaborepin-8-yl)cinnolin-4-amine enantiomer 1]"
2,1.51,"CC1COc2cc(-n3cccn3)c(-c3ccc4c(N)cnnc4c3)cc2B(O)O1 (single isomer, unassigned; enantiomer 2) [Example 73, 7-(1-hydroxy-3-methyl-7-pyrazol-1-yl-3,4-dihydro-2,5,1-benzodioxaborepin-8-yl)cinnolin-4-amine enantiomer 2]"
3,34.7,"Nc1cnnc2cc(-c3cc(B(O)O)ccc3-c3cc(C(F)(F)F)[nH]n3)ccc12 [Example 19, [3-(4-aminocinnolin-7-yl)-4-[5-(trifluoromethyl)-1H-pyrazol-3-yl]phenyl]boronic acid]"
4,0.776,"Nc1cnnc2cc(-c3cc(B(O)O)ccc3-c3nc[nH]n3)ccc12 [Example 20, [3-(4-aminocinnolin-7-yl)-4-(1H-1,2,4-triazol-3-yl)phenyl]boronic acid]"
5,1.86,"CS(=O)(=O)Nc1cnn(-c2ccc(B(O)O)cc2-c2ccc3c(N)cnnc3c2)c1 [Example 21, [3-(4-aminocinnolin-7-yl)-4-(4-methanesulfonamido-1H-pyrazol-1-yl)phenyl]boronic acid]"
6,0.851,"N#Cc1ccnn1-c1ccc(B(O)O)cc1-c1ccc2c(N)cnnc2c1 [Example 22, [3-(4-aminocinnolin-7-yl)-4-(5-cyano-1H-pyrazol-1-yl)phenyl]boronic acid]"
7,1.07,"COc1cc(-n2cccn2)c(-c2ccc3c(N)cnnc3c2)cc1B(O)O [Example 23, [5-(4-aminocinnolin-7-yl)-2-methoxy-4-(1H-pyrazol-1-yl)phenyl]boronic acid]"
8,2.57,"Nc1cnnc2cc(-c3cc(B(O)O)ccc3-c3nccs3)ccc12 [Example 24, [3-(4-aminocinnolin-7-yl)-4-(1,3-thiazol-2-yl)phenyl]boronic acid formic acid salt]"
9,0.912,"Nc1cnnc2cc(-c3cc(B(O)O)ccc3-c3ncco3)ccc12 [Example 25, [3-(4-aminocinnolin-7-yl)-4-(1,3-oxazol-2-yl)phenyl]boronic acid formic acid salt]"
10,7.24,"Nc1cnnc2cc(-c3cc(B(O)O)ccc3-c3ncccn3)ccc12 [Example 26, [3-(4-aminocinnolin-7-yl)-4-(pyrimidin-2-yl)phenyl]boronic acid formic acid salt]"
11,4.47,"Nc1cnnc2cc(-c3cc(B(O)O)c(OC(F)F)cc3-n3cccn3)ccc12 [Example 27, [5-(4-aminocinnolin-7-yl)-2-(difluoromethoxy)-4-(1H-pyrazol-1-yl)phenyl]boronic acid formic acid salt]"
12,2.19,"COc1cnn(-c2ccc(B(O)O)cc2-c2ccc3c(N)cnnc3c2)c1 [Example 28, [3-(4-aminocinnolin-7-yl)-4-(4-methoxy-1H-pyrazol-1-yl)phenyl]boronic acid formic acid salt]"
